Two molecules from patent US7939546B2, “Quinoline derivatives for modulating DNA methylation” (SuperGen, Inc., priority 2007, dated 2011) can be followed below.

The structures appear in SMILES notation.

One may read the IC50 as the point on the concentration scale where inhibition reaches its midpoint.

The test system of assay [1] is p16. The assay can be described thus: RT-PCR assay for gene expression (p16) in RKO and HCT-116 cells. Particulars: for RNA expression levels of p16: FIG. 1, varying concentrations, forty eight hour incubation. The class given is cell-based. The protocol:
RKO and HCT-116 cells were treated with Cpd. AAA, Cpd. BBB, and Cpd. CCC at varying concentrations. After a forty eight hour incubation cells were harvested for RNA isolation using the Qiagen RNeasy Mini kit. RNA was quantified using a spectrophotometer and 1 μg of RNA was used for cDNA synthesis using the Bio-Rad iScript cDNA Synthesis Kit. RTPCR was performed using SYBER GreenER qPCR SuperMix for iCycler according to the manufacturer's protocol. Primer sequences used are as follows [NT] (SEQ ID NO: 2) and [NT] (SEQ ID NO: 3), MLH-1 [NT] (SEQ ID NO: 4) and [NT] (SEQ ID NO:5), [NT] (SEQ ID NO: 6) and [NT] (SEQ ID NO: 7), GAPDH [NT] (SEQ ID NO:8) and [NT] (SEQ ID NO:9), and […] (SEQ ID NO: 10) and [NT] (SEQ ID NO:11). Samples were analyzed on the iQ5 Multicolor Real-Time PCR Detection System from Bio-Rad. Data analysis was performed using the iQ5 Optical System Software version 2.0, Threshold Cycle (CT) and CT mean values were determined from this software. For each sample there are at least four reactions, two for p16 and two for GAPDH the housekeeping control. The mean CT value from the GAPDH reactions was subtracted from each of the corresponding p16 samples CT giving a value termed Delta CT. Then the Delta CT for the untreated p16 sample is subtracted from all treated Delta CT values giving another value termed Delta Delta CT. […] The duplicate samples are averaged together to get an average Relative Expression for each treatment and the Standard Error is calculated. Relative expression values for p15 and MLH-1 were calculated using the same method. […] AAA, Cpd. BBB, and Cpd. […] Cpd. […] Because the higher levels of p16 seemed to have less effect in causing re-expression of p16 there may be some issues with drug solubility or toxicity at the higher concentrations tested.

Assay [2] deals with HCT-116. Briefly: Cell-based growth assay (Cell-Titer-Glo), HCT-116. Particulars: Homo sapiens; HCT-116, 96 hours; read-out: IC50 Values CTG. The protocol:
(§1) Cell culture-based assays can be used to evaluate the ability of compounds of the invention to inhibit one or more cellular activities, such as cancer cell growth and/or survival. Numerous cancer cell lines can be obtained from the American Type Culture Collection (ATCC) and other sources. Briefly, cells are seeded into 96-well, tissue-culture treated, opaque white plates (Thermo Electron, Vantaa, Finland), at between 5000 and 10000 cells per well, depending on the speed of cell proliferation, in 100 μl of appropriate growth medium (determined by the ATCC). Cells are then exposed to the appropriate concentration of drug or an equal amount of DMSO (drug diluent) and allowed to grow in its presence for 96 hours. Following this, 100 μl of Cell-Titer-Glo (CTG) reagent (Promega, Inc., Madison, Wis.) is added to each well. Plates are then shaken for 2 minutes at room temperature to allow for cell lysis and incubated for 10 minutes at room temperature to stabilize the luminescent signal. Similar to the Kinase-Glo assay reagent from Promega, this reagent contains both luciferase enzyme and its substrate luciferin. Luciferase, activated by ATP in the cell lysate, catalyzes the conversion of luciferin to oxyluciferin, a reaction which produces light. […]

Assay [3] deals with RKO. Briefly: Cell-based growth assay (Cell-Titer-Glo), RKO. Conditions: Homo sapiens, 96 hours, read-out: IC50 Values CTG. The protocol: Cell culture-based assays can be used to evaluate the ability of compounds of the invention to inhibit one or more cellular activities, such as cancer cell growth and/or survival. Numerous cancer cell lines can be obtained from the American Type Culture Collection (ATCC) and other sources. Briefly, cells are seeded into 96-well, tissue-culture treated, opaque white plates (Thermo Electron, Vantaa, Finland), at between 5000 and 10000 cells per well, depending on the speed of cell proliferation, in 100 μl of appropriate growth medium (determined by the ATCC). Cells are then exposed to the appropriate concentration of drug or an equal amount of DMSO (drug diluent) and allowed to grow in its presence for 96 hours. Following this, 100 μl of Cell-Titer-Glo (CTG) reagent (Promega, Inc., Madison, Wis.) is added to each well. Plates are then shaken for 2 minutes at room temperature to allow for cell lysis and incubated for 10 minutes at room temperature to stabilize the luminescent signal. Similar to the Kinase-Glo assay reagent from Promega, this reagent contains both luciferase enzyme and its substrate luciferin. Luciferase, activated by ATP in the cell lysate, catalyzes the conversion of luciferin to oxyluciferin, a reaction which produces light. The amount of light produced is proportionate to the amount of ATP in the cell lysate, which is itself proportional to cell number and gives an index of cellular proliferation.

The subject of assay [4] is Panc-1. The assay can be described thus: Cell-based growth assay (Cell-Titer-Glo), Panc-1. Particulars: Homo sapiens; Panc-1, 96 hours; read-out: IC50 Values CTG. The protocol: as §1

Turning to `Cl.O=C(Nc1ccc(Sc2ccncc2)cc1)c1ccc(Nc2ccnc3ccccc23)cc1` [Cpd. AAA, N-[4-(pyridin-4-ylthio)phenyl]-4-(quinolin-4-ylamino)benzamide hydrochloride], the “RNA expression levels of p16” value in assay [1] is listed as “increase the RNA expression levels of p16”. Further, the “re-expression of p16 over no treatment” value in assay [1] (concentration of 0.11 M (so in the source)) is reported as “greatest re-expression of p16”. Besides, the concentration for half-maximal inhibition (IC50) in assay [2] was determined as 6150 nM; in assay [3] it was 1220 nM; in assay [4], 1800 nM.

For `Cl.Nc1cc(Sc2ccc(NC(=O)c3ccc(Nc4ccnc5ccccc45)cc3)cc2)ccn1` [Cpd. BBB, N-[4-(2-aminopyridin-4-ylthio)phenyl]-4-(quinolin-4-ylamino)benzamide hydrochloride], in assay [1], the “RNA expression levels of p16” value was “increase the RNA expression levels of p16”. Further, the values for the half-maximal inhibitory concentration (IC50) in assay [2], in assay [3] and in assay [4] were 670 nM, 740 nM and 1000 nM, respectively.
